Laboratory results taken from ChEMBL document CHEMBL4052759, “Discovery of DS79182026: A potent orally active hepcidin production inhibitor” (Bioorg Med Chem Lett, 2017).
One block for each molecule: values may come before it.

What was measured:
[1] = biological target: Ribosomal protein S6 kinase alpha-1 (Homo sapiens) (UniProt Q15418); experiment: Inhibition of RSK1 (unknown origin) at 0.078 uM relative to control
[2] = biological target: Calcium/calmodulin-dependent protein kinase type II subunit beta (Homo sapiens) (UniProt Q13554); experiment: Inhibition of CAMK2 (unknown origin) at 0.078 uM relative to control
[3] = biological target: T1, Interleukin-1 receptor-associated kinase 4 (Homo sapiens) (UniProt Q9NWZ3); experiment: Inhibition of IRAK4 (unknown origin) at 0.078 uM relative to control
T1 sequence (whole entry): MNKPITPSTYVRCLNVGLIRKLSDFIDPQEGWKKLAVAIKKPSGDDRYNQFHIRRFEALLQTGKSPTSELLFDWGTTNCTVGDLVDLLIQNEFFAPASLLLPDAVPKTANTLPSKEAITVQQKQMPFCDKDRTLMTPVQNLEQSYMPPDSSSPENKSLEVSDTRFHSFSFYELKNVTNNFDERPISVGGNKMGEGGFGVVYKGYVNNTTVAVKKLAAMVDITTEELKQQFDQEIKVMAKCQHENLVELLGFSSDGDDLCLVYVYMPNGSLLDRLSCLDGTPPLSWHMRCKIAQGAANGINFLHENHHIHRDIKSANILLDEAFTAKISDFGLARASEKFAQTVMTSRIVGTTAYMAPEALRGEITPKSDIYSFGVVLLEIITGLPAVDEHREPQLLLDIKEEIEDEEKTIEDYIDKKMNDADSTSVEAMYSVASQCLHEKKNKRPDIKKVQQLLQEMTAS

Homo sapiens = organism: Homo sapiens; experiment: Inhibition of p70S6K (unknown origin) at 0.078 uM relative to control
[4] = biological target: Ribosomal protein S6 kinase alpha-5 (Homo sapiens) (UniProt O75582); experiment: Inhibition of MSK1 (unknown origin) at 0.078 uM relative to control
[5] = biological target: Ephrin type-B receptor 3 (Homo sapiens) (UniProt P54753); experiment: Inhibition of EPHB3 (unknown origin) at 0.49 uM relative to control
[6] = biological target: Tyrosine-protein kinase Tec (Homo sapiens) (UniProt P42680); experiment: Inhibition of TEC (unknown origin) at 0.49 uM relative to control
[7] = biological target: Cyclin-dependent kinase 1/cyclin B1 (Homo sapiens) (UniProt P06493+P14635); experiment: Inhibition of CDK1/CyclinB (unknown origin) at 0.49 uM relative to control; type: protein-complex assay
[8] = biological target: Serine/threonine-protein kinase BRSK1 (Homo sapiens) (UniProt Q8TDC3); experiment: Inhibition of BRSK1 (unknown origin) at 0.49 uM relative to control
[9] = biological target: Testis-specific serine/threonine-protein kinase 2 (Homo sapiens) (UniProt Q96PF2); experiment: Inhibition of TSSK2 (unknown origin) at 0.49 uM relative to control
[10] = biological target: Mitogen-activated protein kinase 11 (Homo sapiens) (UniProt Q15759); experiment: Inhibition of p38-beta2 (unknown origin) at 0.49 uM relative to control
[11] = biological target: Homeodomain-interacting protein kinase 2 (Homo sapiens) (UniProt Q9H2X6); experiment: Inhibition of HIPK2 (unknown origin) at 0.49 uM relative to control
[12] = biological target: Serine/threonine-protein kinase 25 (Homo sapiens) (UniProt O00506); experiment: Inhibition of YSK (unknown origin) at 0.49 uM relative to control
[13] = biological target: T1, Interleukin-1 receptor-associated kinase 4 (Homo sapiens); experiment: Inhibition of IRAK4 (unknown origin) at 0.45 uM relative to control
[14] = biological target: Serine/threonine-protein kinase pim-3 (Homo sapiens) (UniProt Q86V86); experiment: Inhibition of PIM3 (unknown origin) at 0.45 uM relative to control
[15] = biological target: Tyrosine-protein kinase Fyn (Homo sapiens) (UniProt P06241); experiment: Inhibition of FYN (unknown origin) at 0.45 uM relative to control
[16] = biological target: Rho-associated protein kinase 1 (Homo sapiens) (UniProt Q13464); experiment: Inhibition of ROCK1 (unknown origin) at 0.45 uM relative to control
[17] = biological target: Tyrosine-protein kinase Yes (Homo sapiens) (UniProt P07947); experiment: Inhibition of Yes (unknown origin) at 0.45 uM relative to control
[18] = biological target: RAC-alpha serine/threonine-protein kinase (Homo sapiens) (UniProt P31749); experiment: Inhibition of AKT1 (unknown origin) at 0.45 uM relative to control
[19] = biological target: Calcium/calmodulin-dependent protein kinase type 1D (Homo sapiens) (UniProt Q8IU85); experiment: Inhibition of CamK1d (unknown origin) at 0.45 uM relative to control
[20] = biological target: Glycogen synthase kinase-3 beta (Homo sapiens) (UniProt P49841); experiment: Inhibition of GSK3b (unknown origin) at 0.45 uM relative to control
[21] = biological target: Tyrosine-protein kinase ITK/TSK (Homo sapiens) (UniProt Q08881); experiment: Inhibition of ITK (unknown origin) at 0.45 uM relative to control
[22] = biological target: Protein kinase C eta type (Homo sapiens) (UniProt P24723); experiment: Inhibition of PKC-eta (unknown origin) at 0.45 uM relative to control
[23] = biological target: Vascular endothelial growth factor receptor 2 (Homo sapiens) (UniProt P35968); experiment: Inhibition of KDR (unknown origin) at 0.45 uM relative to control
[24] = biological target: Platelet-derived growth factor receptor alpha (Homo sapiens) (UniProt P16234); experiment: Inhibition of PDGFR alpha (unknown origin) at 0.45 uM relative to control

Sequence of Cyclin-dependent kinase 1/cyclin B1 (Homo sapiens) (P06493 whole entry, looked up): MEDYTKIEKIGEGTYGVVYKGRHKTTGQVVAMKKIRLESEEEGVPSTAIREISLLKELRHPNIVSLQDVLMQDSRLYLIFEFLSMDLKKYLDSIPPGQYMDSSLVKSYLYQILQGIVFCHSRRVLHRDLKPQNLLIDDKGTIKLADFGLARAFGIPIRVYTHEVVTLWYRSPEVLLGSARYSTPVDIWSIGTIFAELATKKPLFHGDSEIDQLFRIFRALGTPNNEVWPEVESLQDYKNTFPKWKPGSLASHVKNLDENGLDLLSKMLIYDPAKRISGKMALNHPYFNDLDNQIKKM
Sequence of Cyclin-dependent kinase 1/cyclin B1 (Homo sapiens) (P14635 whole entry, looked up): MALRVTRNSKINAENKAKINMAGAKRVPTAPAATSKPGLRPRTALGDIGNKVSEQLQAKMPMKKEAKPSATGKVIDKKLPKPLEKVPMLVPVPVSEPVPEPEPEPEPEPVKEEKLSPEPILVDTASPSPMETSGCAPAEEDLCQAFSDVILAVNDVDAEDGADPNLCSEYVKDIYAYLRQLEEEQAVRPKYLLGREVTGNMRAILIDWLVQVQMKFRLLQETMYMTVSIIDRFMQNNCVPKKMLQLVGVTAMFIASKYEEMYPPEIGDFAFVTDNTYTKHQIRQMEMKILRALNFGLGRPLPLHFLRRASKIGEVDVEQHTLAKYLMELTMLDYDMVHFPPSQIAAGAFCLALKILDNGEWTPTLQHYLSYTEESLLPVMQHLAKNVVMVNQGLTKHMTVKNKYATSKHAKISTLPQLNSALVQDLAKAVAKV
Sequence of Ribosomal protein S6 kinase alpha-5 (Homo sapiens) (O75582 whole entry, looked up): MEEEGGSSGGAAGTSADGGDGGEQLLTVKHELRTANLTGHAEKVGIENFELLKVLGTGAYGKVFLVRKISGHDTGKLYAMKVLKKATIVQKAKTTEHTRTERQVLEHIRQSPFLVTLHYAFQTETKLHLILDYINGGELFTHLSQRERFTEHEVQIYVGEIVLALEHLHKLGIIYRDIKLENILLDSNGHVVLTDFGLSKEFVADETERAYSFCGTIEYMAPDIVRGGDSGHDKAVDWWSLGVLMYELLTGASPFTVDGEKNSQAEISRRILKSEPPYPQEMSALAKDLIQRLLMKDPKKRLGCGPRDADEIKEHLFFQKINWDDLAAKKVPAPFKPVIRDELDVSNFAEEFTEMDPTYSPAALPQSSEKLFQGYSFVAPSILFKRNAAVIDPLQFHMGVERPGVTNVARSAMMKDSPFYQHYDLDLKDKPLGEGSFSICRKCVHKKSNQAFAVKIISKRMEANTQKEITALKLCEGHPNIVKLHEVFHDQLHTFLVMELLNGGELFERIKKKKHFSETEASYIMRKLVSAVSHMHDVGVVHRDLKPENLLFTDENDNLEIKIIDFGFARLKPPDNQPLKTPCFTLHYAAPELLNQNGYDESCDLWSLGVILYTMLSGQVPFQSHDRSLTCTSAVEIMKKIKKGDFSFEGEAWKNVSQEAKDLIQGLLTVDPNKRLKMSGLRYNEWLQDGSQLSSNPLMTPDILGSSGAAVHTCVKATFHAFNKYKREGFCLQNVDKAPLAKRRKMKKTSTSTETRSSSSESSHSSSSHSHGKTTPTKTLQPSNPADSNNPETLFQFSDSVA
Sequence of Homeodomain-interacting protein kinase 2 (Homo sapiens) (Q9H2X6 whole entry, looked up): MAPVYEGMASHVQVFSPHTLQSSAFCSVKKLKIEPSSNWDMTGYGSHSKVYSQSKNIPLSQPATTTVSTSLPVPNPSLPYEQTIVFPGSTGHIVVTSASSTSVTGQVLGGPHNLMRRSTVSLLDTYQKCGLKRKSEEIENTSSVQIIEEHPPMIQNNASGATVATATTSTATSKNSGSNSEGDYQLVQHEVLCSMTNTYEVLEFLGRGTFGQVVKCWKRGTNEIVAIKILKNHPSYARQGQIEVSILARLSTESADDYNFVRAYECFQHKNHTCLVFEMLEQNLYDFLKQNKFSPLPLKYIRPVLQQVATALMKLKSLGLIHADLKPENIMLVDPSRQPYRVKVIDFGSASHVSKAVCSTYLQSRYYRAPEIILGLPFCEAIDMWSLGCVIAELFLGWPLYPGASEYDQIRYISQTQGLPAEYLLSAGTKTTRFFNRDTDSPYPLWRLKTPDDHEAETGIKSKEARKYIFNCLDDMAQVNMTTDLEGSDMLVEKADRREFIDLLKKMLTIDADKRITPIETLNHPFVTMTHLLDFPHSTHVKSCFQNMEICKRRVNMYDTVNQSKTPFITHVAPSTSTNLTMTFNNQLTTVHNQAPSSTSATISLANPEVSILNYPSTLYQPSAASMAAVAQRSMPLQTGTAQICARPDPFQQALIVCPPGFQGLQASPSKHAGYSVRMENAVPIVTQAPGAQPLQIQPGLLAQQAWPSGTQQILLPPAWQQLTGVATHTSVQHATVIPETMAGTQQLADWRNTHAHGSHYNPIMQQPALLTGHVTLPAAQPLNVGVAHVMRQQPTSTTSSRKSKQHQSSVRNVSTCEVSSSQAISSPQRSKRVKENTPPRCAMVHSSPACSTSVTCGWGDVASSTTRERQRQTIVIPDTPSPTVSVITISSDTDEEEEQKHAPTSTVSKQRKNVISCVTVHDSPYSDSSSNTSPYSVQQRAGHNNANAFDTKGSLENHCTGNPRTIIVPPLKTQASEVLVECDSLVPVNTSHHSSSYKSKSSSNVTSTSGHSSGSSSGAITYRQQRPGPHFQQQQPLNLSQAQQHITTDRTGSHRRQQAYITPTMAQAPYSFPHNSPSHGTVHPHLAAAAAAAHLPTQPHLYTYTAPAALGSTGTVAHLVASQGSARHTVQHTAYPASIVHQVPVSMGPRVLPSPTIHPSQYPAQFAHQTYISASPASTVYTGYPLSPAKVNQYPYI
Sequence of Tyrosine-protein kinase Tec (Homo sapiens) (P42680 whole entry): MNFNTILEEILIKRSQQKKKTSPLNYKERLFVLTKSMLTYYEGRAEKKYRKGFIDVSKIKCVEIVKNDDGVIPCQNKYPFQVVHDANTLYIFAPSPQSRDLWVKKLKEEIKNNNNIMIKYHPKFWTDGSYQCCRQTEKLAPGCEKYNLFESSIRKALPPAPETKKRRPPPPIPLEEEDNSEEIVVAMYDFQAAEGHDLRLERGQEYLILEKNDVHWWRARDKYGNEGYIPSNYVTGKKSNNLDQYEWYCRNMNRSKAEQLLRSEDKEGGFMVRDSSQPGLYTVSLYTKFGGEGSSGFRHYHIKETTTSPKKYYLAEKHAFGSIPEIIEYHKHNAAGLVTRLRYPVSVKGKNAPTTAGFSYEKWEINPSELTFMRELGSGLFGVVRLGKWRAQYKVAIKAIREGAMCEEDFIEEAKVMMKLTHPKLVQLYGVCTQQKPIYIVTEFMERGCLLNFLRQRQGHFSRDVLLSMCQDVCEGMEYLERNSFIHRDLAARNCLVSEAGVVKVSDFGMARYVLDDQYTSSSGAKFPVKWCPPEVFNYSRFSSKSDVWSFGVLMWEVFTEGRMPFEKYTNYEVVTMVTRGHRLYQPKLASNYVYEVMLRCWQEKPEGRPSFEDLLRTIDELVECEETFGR
Sequence of Calcium/calmodulin-dependent protein kinase type II subunit beta (Homo sapiens) (Q13554 whole entry): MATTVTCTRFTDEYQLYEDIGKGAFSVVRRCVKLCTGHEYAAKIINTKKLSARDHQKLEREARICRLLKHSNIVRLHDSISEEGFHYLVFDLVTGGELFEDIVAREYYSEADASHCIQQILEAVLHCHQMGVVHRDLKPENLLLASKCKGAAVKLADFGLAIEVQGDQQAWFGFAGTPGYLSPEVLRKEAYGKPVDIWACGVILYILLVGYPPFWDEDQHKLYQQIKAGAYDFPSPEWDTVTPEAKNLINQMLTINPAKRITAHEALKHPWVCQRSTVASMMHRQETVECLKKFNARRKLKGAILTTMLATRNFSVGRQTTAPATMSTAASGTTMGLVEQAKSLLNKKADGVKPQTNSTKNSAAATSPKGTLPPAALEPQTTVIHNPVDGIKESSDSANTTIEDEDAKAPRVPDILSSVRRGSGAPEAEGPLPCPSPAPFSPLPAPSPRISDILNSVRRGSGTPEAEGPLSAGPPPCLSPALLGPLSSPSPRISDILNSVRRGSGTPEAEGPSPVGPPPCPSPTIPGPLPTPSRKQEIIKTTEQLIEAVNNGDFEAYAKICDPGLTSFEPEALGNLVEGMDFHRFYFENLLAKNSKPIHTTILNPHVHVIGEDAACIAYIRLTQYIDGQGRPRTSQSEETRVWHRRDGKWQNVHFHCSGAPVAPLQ
Sequence of Protein kinase C eta type (Homo sapiens) (P24723 whole entry): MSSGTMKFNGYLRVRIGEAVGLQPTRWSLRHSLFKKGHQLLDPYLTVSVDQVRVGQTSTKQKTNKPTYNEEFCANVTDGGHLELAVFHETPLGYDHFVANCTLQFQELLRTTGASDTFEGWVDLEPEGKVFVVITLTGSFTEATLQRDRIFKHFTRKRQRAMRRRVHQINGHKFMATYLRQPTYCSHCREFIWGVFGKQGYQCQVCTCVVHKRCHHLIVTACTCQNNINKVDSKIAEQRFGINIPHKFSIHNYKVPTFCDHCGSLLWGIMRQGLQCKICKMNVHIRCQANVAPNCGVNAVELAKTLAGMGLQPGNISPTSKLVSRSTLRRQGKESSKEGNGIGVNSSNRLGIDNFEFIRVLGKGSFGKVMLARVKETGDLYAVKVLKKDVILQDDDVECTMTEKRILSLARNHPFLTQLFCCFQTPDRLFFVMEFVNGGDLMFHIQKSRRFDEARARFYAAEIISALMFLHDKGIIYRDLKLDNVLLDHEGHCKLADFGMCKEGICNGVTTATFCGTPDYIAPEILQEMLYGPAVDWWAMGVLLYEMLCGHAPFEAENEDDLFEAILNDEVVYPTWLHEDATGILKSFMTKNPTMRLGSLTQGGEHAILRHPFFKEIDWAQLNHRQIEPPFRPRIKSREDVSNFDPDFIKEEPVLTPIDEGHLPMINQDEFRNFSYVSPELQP

inhibition [1]: 0.3% | inhibition [2]: 3.7% | inhibition [3]: 5.7% | inhibition (Homo sapiens): 4% | inhibition [4]: -5.7%
SMILES: COC(=O)Nc1noc2cc(-c3c(-c4ccccn4)n[nH]c3C)ccc12

inhibition [5]: 0.7% | inhibition [6]: 3.7% | inhibition [7]: 5.3% | inhibition [8]: 1.7% | inhibition [9]: 2% | inhibition [10]: 0.7% | inhibition [11]: 2.7% | inhibition [12]: 4.3%
SMILES: Cc1[nH]nc(C2CC2)c1-c1ccc2c(NC(=O)C3CC3)noc2c1

inhibition [13]: 11% | inhibition [14]: -2.3% | inhibition [15]: 46% | inhibition [16]: -2% | inhibition [17]: 49% | inhibition [18]: -1.7% | inhibition [19]: 0.7% | inhibition [20]: 1.3% | inhibition [21]: 89% | inhibition [22]: 0.3% | inhibition [23]: 35.7% | inhibition [24]: 11.7%
SMILES: Cc1n[nH]c(C)c1-c1ccc2c(NC(=O)c3ccc(N4CCN(C)CC4)cc3)n[nH]c2c1
